In patent US7622489B2, “Mitotic kinesin inhibitors” (Merck & Co., Inc., priority 2002, dated 2009):

Molecular target: T1, human KSP motor domain (KSP(367H)) (Homo sapiens, UniProt P52732)
T1 construct: were used to amplify the motor domain and the neck linker region; made in house; host or cells: E. coli BL21 (DE3), vector pRSETa
T1 sequence (P52732 18-359 limits assumed): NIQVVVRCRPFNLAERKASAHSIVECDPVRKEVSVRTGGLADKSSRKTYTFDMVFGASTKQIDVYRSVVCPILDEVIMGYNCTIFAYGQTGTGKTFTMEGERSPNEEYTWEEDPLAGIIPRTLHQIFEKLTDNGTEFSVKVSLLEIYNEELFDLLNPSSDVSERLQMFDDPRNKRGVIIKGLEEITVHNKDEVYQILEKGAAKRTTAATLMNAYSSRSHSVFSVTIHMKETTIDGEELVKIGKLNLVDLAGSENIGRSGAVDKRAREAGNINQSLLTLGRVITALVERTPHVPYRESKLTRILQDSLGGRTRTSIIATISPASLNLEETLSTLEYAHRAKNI
Test: Kinesin ATPhase In Vitro Assay
Assay type: biochemical
Details: kinesin motor domain with microtubules, 1 mM ATP, 23° C.; free phosphate by quinaldine red/ammonium molybdate, 540 nm
Excerpt: I. Kinesin ATPhase In Vitro Assay
Cloning and Expression of Human Poly-Histidine Tagged KSP Motor Domain (KSP(367H))
Plasmids for the expression of the human KSP motor domain construct were cloned by PCR using a pBluescript full length human KSP construct (Blangy et al., Cell, vol. 83, pp1159-1169, 1995) as a template. The N-terminal primer 5′-[…] (SEQ. ID. NO.: 1) and the C-terminal primer 5′-[…] […] (SEQ. ID. NO.: 2) were used to amplify the motor domain and the neck linker region. The PCR products were digested with AseI and XhoI, ligated into the NdeIlXhoI digestion product of pRSETa (Invitrogen) and transformed into E. coli BL21 (DE3).
Cells were grown at 37 IC to an OD600 of 0.5. […]
The kinesin motor domain is incubated with microtubules, 1 mM ATP (1:1 MgCl2: Na-ATP), and compound at 23° C. in buffer containing 80 mM K-HEPES (pH 7.0), 1 mM EGTA, 1 mM DTT, 1 mM MgCl2, and 50 mM KCl. […] Free phosphate from the ATP hydrolysis reaction is measured via a quinaldine red/ammonium molybdate assay by adding 150 μl of quench C buffer containing a 2:1 ratio of quench A:quench B. Quench A contains 0.1 mg/mil quinaldine red and 0.14% polyvinyl alcohol; quench B contains 12.3 mM ammonium molybdate tetrahydrate in 1.15 M sulfuric acid. The reaction is incubated for 10 minutes at 23° C., and the absorbance of the phospho-molybdate complex is measured at 540 nm.

IC50 [µM]	SMILES
≤ 15	CC(C)[C@H](N)C(=O)N1CCC(c2cc(F)ccc2F)=CC1c1cccc(O)c1 (some centres unmarked) [Compound 2-2]
≤ 15	CNCC(C)CN(C)C(=O)N1CCC(c2cc(F)ccc2F)=CC1c1cccc(O)c1 (centres unmarked) [Compound 3-3, 4-(2,5-difluorophenyl)-6-(3-hydroxyphenyl)-N-methyl-N-[2-methyl-3-(methylamino)propyl]-3,6-dihydropyridine-1(2H)-carboxamide]
